A word on the IC50: it is the concentration that gives 50% inhibition. The half-life is the time needed for the level to fall by half in the phase considered.

The text below walks through data of patent publication US12234240B2, “Substituted imidazo[5,1-d][1,2,3,5]tetrazines for the treatment of cancer” (The Board of Trustees of the University of Illinois, priority 2018, dated 2025).

In data set [1] the test system is GBM Br23c oncospheres intracranially implanted. The data set can be described thus: Intracranial mouse model of GBM (Br23c oncospheres). Type of data set: in vivo. To be noted: oral gavage, 15 mg/kg TMZ or equimolar dose. The source says:
FIG. 5. Evaluation of imidazotetrazines in intracranial mouse models of GBM. GBM Br23c oncospheres were intracranially implanted into female athymic nude mice. Treatment was started 5 days post implantation. […] Compounds were formulated in 10% PEG in PBS immediately prior to each treatment. Number of mice per treatment cohort≥5. Survival curves were compared using log-rank test.
in vivo Efficacy Models. Human GBM Br23c stem-like neurosphere cells were intracranially implanted in female athymic nude mice (150,000 cells/mouse). […] Mice were observed daily for any signs of deterioration, neurotoxicity, or movement disorders. They were inspected for signs of pain and distress, as in accordance with the Johns Hopkins Animal Care and Use Guidelines.

A further data set deals with U87 cells. Kind of data set: Cell viability, Alamar Blue, 7-day incubation, U87. Type of data set: cell-based. To be noted: Homo sapiens, U-87 MG, 168 h, MGMT −, error SEM. As for the experimental part:
(§1) Anticancer activity of C8 substituted imidazotetrazines. With a suite of imidazotetrazines in hand, each compound was evaluated against a panel of human GBM cell lines (Table 1a, Table 1b).
(Resazurin is reduced to fluorescent resorufin, in cell work by metabolically active cells.)

The subject of the next data set is D54 cells. Kind of data set: Cell viability, Alamar Blue, 7-day incubation, D54. The class given is cell-based. Conditions: Homo sapiens, D54, 168 h, MGMT −, error SEM. As for the experimental part:
as §1

The next data set in a line: physchem. Conditions: buffered saline (PBS), pH 7.4.
Data set [2] has as its system T98G cells. The data set can be described thus: Cell viability, Alamar Blue, 7-day incubation, T98G. To be noted: Homo sapiens, 168 h, MGMT +, error SEM. Type of data set: cell-based. As for the experimental part: as §1
Data set [3] deals with Br23c GBM oncosphere cell line. Kind of data set: Cell viability, Alamar Blue, 7-day, Br23c GBM oncosphere line. Type of data set: cell-based. To be noted: Homo sapiens, 168 h, error SEM, read-out: 7-day IC50 MGMT − Br23C.
Data set [4] can be described thus: Stability in the absence of microsomes (microsomes replaced with PBS). Conditions: liver microsomes replaced with PBS, percentage remaining relative to t0. Type of data set: physicochemical. As for the experimental part:
(§2) Liver microsome stability.
(§3) Mouse Liver Microsome Stability Assay. A mixture of PBS (pH 7.4), NADPH regenerating system solution A (Corning Life Sciences), and NADPH regenerating system solution B (Corning Life Sciences) was incubated at 37° C. in a shaking incubator for 5 min. Next, compound was added in DMSO (final concentration 50 μM, 0.5% DMSO) before ice-cold mouse liver microsomes (Thermo Fisher, male CD-1 mice, pooled) were added (final protein concentration of 1 mg/mL). An aliquot was immediately removed, quenched with an equal volume of 100 μM internal standard and 0.5% hydrochloric acid in ice-cold acetonitrile, and centrifuged at 13,000 rcf for 3 min. The supernatant was diluted 1:5 in ddH2O and analyzed by LC-MS. The reactions were incubated at 37° C. in a shaking incubator for 2 h. A second aliquot was removed, quenched and diluted as before and analyzed by LC-MS. The ratio of the areas of analyte:internal standard at 2 hours was compared to the ratio at t0 to determine the percentage of compound remaining. Analysis was performed on an Agilent 6230 LC/MS TOF system with a 1.8 μm, 2.1×50 mm Agilent ZORBAX Eclipse Plus C18 column.

The subject of the next data set is human GBM cell lines. The data set can be described thus: Viability in panel of human GBM cell lines. The class given is cell-based. As for the experimental part: as §1
The conditions of data set [5]: cited from earlier work.
Data set [6] concerns T98G cells. Kind of data set: cells. Type of data set: cell-based. As for the experimental part:
FIG. 4. Imidazotetrazines were added to T98G cells with or without 3 h pre-treatment of O6BG (100 μM). IC50 values after 7-day incubation and fold changes between (+/−) O6BG treatments are reported. […] Error is SEM, n≥3. Statistical significance was determined by using a two-sample Student's t-test (two-tailed test, assuming equal variance).

The next data set concerns glioblastoma. Conditions: cited from earlier work.
A short description of data set [7]: Assessment of hematological toxicity in vivo. Conditions: mice. As for the experimental part:
Assessment of hematological toxicity. […] Both lymphocyte (FIG. 3b) and neutrophil (FIG. 8a) concentrations were decreased in TMZ-treated mice. […] Total WBC, lymphocyte, and neutrophil counts for mice treated with these compounds were equivalent to those of control mice.
Assessment of Hematological Toxicity. Male CD-1 IGS mice (n=4 mice/group) were administered a single dose of 125 mg/kg compound intravenously. Imidazotetrazines were formulated with SBEβCD in sterile water immediately prior to injection. Seven days post-treatment, mice were humanely sacrificed and whole blood was collected for assessment of total white blood cells, lymphocytes, neutrophils, platelets, and red blood cells.

Data set [8] is described as follows: Mouse liver microsome stability assay. The class given is in vitro ADME. As for the experimental part:
as §2, §3
A general note: Liver microsomes are a subcellular fraction often used to study metabolism.

For the next data set, the system named is genomic DNA of U87 cells. The data set can be described thus: O6-methyldeoxyguanosine quantitation in U87 cells. The class given is cell-based, human. To be noted: 100 or 1000 μM, 8 hours. The method, then: Novel imidazotetrazines induce alkylation-mediated cancer cell death. […] After 8 hours of incubation with compound, the genomic DNA was isolated, quantified, and hydrolyzed to its constituent deoxyribonucleosides, which were quantitated via LC-MS/MS analysis. […] Further confirmation that the novel compounds remain DNA alkylators was obtained upon pre-treatment with MGMT inhibitor O^6-benzylguanine (O6BG). O6BG is a pseudosubstrate for MGMT that quenches cellular stores of the enzyme, leading to the persistence of O^6-methylguanine DNA adducts.
O^6-Methyldeoxyguanosine Quantitation. U87 cells were plated at 1×10^6 c/w in a 6-well plate before they were treated with compound at the indicated concentration (1% final concentration DMSO). After 8 h incubation, the cells were harvested and pelleted. Genomic DNA was extracted using the DNeasy Blood & Tissue Kit (Qiagen, ID: 69504). DNA was then precipitated using the following procedure: 1/10 v/v 3M sodium acetate (pH 5.2) and 2.5× v/v ethanol was added to each sample which was then kept at −80° C. for 1 h. […] The concentration of DNA in each sample was quantified measuring absorbance on a NanoDrop 2000 UV-Vis Spectrophotometer (Thermo Fisher). […] Hydrolyzed samples were then submitted for LC-MS/MS quantitation. Samples were analyzed with a 5500 QTRAP LC/MS/MS system (AB Sciex) with a 1200 series HPLC system (Agilent).

Where [9] appears, read: Table 1a, 7 days, n ≥ 3, read-out: IC50 U87.
Where [10] appears, read: Table 1a, 7 days, read-out: IC50 D54.
Where [11] appears, read: Table 1a, 7 days, read-out: IC50 T98G.

The structures appear in SMILES notation. Read-outs that look alike come from different tables or passages of the source. A value given as a limit tells only on which side of the number the result lay.

Experimental for physchem: Hydrolytic stability of C8 substituted imidazotetrazines. […] A HPLC assay was developed to quantify the fraction of intact prodrug remaining in solution after 2 hours at pH 7.4, 37° C.

For `Cc1ncn2c(=O)n(C)nnc12` [Compound 14, 3,8-dimethylimidazo[5,1-d][1,2,3,5]tetrazin-4(3H)-one], the “effect on survival in words” value in data set [1] is reported as “no effect”. In addition, the IC50 in the data set on U87 cells (setting [9]) stood at 3 ± 1 µM; in the data set on D54 cells (setting [10]), 6 ± 3 µM; in the data set on T98G cells [2] (setting [11]) it was 6 ± 1 µM. Moreover, the half-life in “physchem” was 40 h.
On to `Cn1nnc2c(C(N)=O)ncn2c1=O` [TMZ, temozolomide, reference compound], for which the IC50 in data set [3] was 5.2 ± 0.2 µM; in the data set on human GBM cell lines (GBM cell lines with negligible MGMT expression, read-out: IC50 in cell lines with negligible MGMT expression), not above 50 µM; in the data set on human GBM cell lines (GBM cell lines with significant MGMT expression, read-out: IC50 in cell lines with significant MGMT expression), more than 300 µM; with U87 cells (setting [9]) it was 51 ± 8 µM; with U87 cells (Table 1b, read-out: 7-day IC50 U87), 51 ± 8 µM; in the data set with D54 cells (setting [10]), 12 ± 1 µM. Moreover, the IC50 amounted to 12 ± 1 µM with D54 cells (Table 1b, read-out: 7-day IC50 D54); 660 ± 10 µM in the data set with T98G cells [6] (Homo sapiens, 168 h, without O6BG, 7-day incubation); 660 ± 10 µM with T98G cells [2] (setting [11]); 660 ± 10 µM with T98G cells [2] (Table 1b, read-out: 7-day IC50 T98G). Also, the “Stability (2 h, No Microsomes)” value in data set [4] turned out to be 86 ± 4%. Moreover, the “effect on survival in words” value in [1] is listed as “significantly increased median survival compared with vehicle”. Moreover, the “cerebral spinal fluid concentrations as percent of those in the plasma” value in data set [5] (humans) is 20%. Further, the half-life in [5] (in vivo and in aqueous solutions in vitro) was approximately 2 h. In addition, in the data set with T98G cells [6] (O6BG 100 μM), the “enhancement in cytotoxicity after O6BG pre-incubation” value is given as “eight-fold”. In the data set on glioblastoma (TMZ-treated patients), the “myelotoxicity incidence in treated patients” value is given as approximately 20%. Moreover, the median survival result in the data set with glioblastoma (patients whose tumors do not express MGMT) was “approximately two”. For the same molecule, the “Cohort weight 7 days Post” value in [7] (7 days after single IV dose of 125 mg/kg, error SEM, 4 mice) turned out to be 32 ± 1 g. In addition, the “Cohort weight Pre-treatment” value in data set [7] (prior to single IV dose of 125 mg/kg, error SEM, 4 mice) is given as 31 ± 1 g. In addition, in data set [7] (single IV dose 125 mg/kg, complete blood count after 7 days), the “myelosuppression / white blood cell effect” value is given as “white blood cell (WBC) depletion”. Further, the “Stability (2 h, Microsomes)” value in data set [8] (2 h, percentage remaining relative to t0, error SEM, n ≥ 2) worked out at 87 ± 6%. Moreover, the “metabolic stability in words” value in data set [8] (mouse liver microsomes, 2 hours) is on record as “insensitive to metabolic perturbation”. For the same molecule, the “concentration of O6-methylated deoxyguanosine” value with genomic DNA of U87 cells is listed as “Dose dependent increases”.
